We go through 15 compounds from ChEMBL document CHEMBL4819093, “Discovery of 1-[2-(1-methyl-1H-pyrazol-5-yl)-[1,2,4]triazolo[1,5-a]pyridin-6-yl]-3-(pyridin-4-ylmethyl)urea as a potent NAMPT (nicotinamide phosphoribosyltransferase) activator with attenuated CYP inhibition” (Bioorg Med Chem Lett, 2021).

In general, logD refers to lipophilicity at a set pH, counting ionised and neutral species. A higher logD goes with a more lipophilic compound. By inhibition is commonly meant the share of the control response that was lost under treatment. A word on the share remaining: it is the share of the starting amount still present when the sample was taken. As usually defined, the Papp is a coefficient for how fast a substance crosses the barrier. By IC50 is commonly meant the concentration at which inhibition is half-maximal. One may read the EC50 as the concentration that produces a half-maximal response. The term solubility denotes the dissolved amount per volume that the medium holds. For orientation: AUC(0-t) means exposure summed from dosing to a finite time, without extrapolation to infinity. As usually defined, the Cmax is the peak of the concentration-time curve. What is called half-life is the time needed for the level to fall by half in the phase considered.

Molecules are shown by their SMILES. Values after ≈ are worked out from the molar mass of the structure shown.

Series [1] in a line: 1-Octanol/PBS buffer distribution coefficient, log D of the compound at pH 7.4.
The target in the next series is T1, CYP1A2 (Homo sapiens, UniProt P05177).
T1 sequence (P05177 whole entry): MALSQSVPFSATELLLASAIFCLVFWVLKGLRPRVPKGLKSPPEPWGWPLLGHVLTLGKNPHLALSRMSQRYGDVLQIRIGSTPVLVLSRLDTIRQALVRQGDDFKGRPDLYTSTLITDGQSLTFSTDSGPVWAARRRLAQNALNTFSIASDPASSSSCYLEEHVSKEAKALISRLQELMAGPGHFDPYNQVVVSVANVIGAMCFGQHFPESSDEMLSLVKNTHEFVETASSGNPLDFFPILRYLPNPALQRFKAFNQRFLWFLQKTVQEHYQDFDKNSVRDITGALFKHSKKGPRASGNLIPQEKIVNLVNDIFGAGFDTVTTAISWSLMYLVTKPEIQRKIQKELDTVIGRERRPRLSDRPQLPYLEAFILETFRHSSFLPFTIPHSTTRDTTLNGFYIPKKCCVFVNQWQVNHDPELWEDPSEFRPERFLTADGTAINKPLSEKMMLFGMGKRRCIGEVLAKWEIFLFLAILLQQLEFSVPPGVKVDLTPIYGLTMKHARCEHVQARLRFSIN
Kind of series: Inhibition of CYP1A2 (unknown origin) at 10 uM measured after 10 mins. Format: ADME.

Series [2] in a line: Metabolic stability in human microsome assessed as parent compound remaining at 1 uM measured after 30 mins. Particulars: microsomes.
Series [3] is described as follows: Permeability of the compound at pH 5 by PAMPA. A general note: PAMPA measures passive passage across an artificial lipid membrane.
For a further series, the target named is CYP3A4 (Homo sapiens, UniProt P08684). Kind of series: Inhibition of CYP3A4 (unknown origin) at 10 uM measured after 10 mins. It is filed as ADME.
A further series concerns the target CYP2C9 (Homo sapiens, UniProt P11712). Kind of series: Inhibition of CYP2C9 (unknown origin) at 10 uM measured after 10 mins. Format: ADME.
Series [4] in a line: Permeability of the compound at pH 7.4 by PAMPA.
A short description of series [5]: Metabolic stability in mouse microsome fraction assessed as parent compound remaining at 1 uM measured after 30 mins. Conditions: microsomes.
The target of another series is CYP2D6 (Homo sapiens, UniProt P10635). In words: Inhibition of CYP2D6 (unknown origin) at 10 uM measured after 10 mins. Format: ADME.
In series [6] the target is T2, Nicotinamide phosphoribosyltransferase (Homo sapiens, UniProt P43490). In words: Inhibition of human NAMPT assessed as decrease in NMN production by fluorescence based analysis.
Series [7] concerns the target T2, Nicotinamide phosphoribosyltransferase. Kind of series: Activation of human NAMPT assessed as increase in NMN production by fluorescence based analysis.
Series [8] is described as follows: Solubility of the compound at pH 1.2. Conditions: buffer.
Series [9] concerns the target T3, hERG (KCNH2) (Homo sapiens, UniProt Q12809). Kind of series: Inhibition of human ERG at 3 uM.
Series [10] can be described thus: in vivo. Particulars: C57BL/6N, mouse, po, 10 mg/kg.
Series [11] can be described thus: Solubility of the compound at pH 6.8. Conditions: buffer.
The target of series [12] is T3, hERG (KCNH2). In words: Inhibition of human ERG at 10 uM.
For series [13], the target named is T3, hERG (KCNH2). Kind of series: Inhibition of human ERG at 30 uM.
A short description of series [14]: in vivo. Particulars: C57BL/6N, mouse, po, 10 mg/kg. This is another data set of the same source.
Series [15] is described as follows: Half life in C57BL/6N mouse at 10 mg/kg, po. Conditions: in vivo.

Sequence of CYP3A4 (P08684 whole entry): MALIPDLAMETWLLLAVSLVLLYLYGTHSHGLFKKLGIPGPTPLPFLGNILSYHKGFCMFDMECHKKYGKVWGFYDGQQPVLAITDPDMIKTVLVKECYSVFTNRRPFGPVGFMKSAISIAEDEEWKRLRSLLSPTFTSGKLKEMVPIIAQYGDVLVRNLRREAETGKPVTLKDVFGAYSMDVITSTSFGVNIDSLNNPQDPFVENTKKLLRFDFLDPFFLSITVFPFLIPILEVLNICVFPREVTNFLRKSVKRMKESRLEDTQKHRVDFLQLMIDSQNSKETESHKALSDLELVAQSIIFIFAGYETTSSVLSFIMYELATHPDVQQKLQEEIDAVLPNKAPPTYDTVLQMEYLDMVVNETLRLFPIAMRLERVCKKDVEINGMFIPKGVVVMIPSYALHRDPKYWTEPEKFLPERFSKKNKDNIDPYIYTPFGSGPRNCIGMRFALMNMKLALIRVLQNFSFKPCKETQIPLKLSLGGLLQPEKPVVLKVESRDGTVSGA
Sequence of CYP2C9 (P11712 whole entry): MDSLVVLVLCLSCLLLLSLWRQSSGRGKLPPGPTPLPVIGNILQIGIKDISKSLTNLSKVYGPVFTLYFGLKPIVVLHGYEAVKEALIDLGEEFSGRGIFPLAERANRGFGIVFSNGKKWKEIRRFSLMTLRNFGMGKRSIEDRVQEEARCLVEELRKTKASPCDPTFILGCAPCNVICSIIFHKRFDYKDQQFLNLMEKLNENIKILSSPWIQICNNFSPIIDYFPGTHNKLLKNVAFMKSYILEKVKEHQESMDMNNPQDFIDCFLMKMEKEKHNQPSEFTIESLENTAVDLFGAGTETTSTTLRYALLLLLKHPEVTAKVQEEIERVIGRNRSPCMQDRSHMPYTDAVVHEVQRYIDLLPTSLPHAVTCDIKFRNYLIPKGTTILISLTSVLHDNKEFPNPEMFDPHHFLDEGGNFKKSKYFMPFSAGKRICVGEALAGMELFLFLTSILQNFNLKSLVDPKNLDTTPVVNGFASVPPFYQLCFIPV
Sequence of CYP2D6 (P10635 whole entry): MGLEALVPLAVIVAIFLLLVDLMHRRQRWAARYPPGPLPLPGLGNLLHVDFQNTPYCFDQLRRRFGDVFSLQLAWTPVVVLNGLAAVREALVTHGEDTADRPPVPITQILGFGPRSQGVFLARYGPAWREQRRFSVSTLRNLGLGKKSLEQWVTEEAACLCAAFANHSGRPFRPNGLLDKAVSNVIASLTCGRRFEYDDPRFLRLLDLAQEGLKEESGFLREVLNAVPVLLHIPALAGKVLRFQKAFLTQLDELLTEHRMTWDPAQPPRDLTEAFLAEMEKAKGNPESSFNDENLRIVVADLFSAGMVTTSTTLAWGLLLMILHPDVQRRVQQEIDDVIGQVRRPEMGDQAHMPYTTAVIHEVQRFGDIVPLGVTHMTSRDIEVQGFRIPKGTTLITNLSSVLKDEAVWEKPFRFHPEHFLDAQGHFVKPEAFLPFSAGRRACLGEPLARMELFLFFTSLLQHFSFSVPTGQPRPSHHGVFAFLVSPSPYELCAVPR
T2 sequence (P43490 whole entry): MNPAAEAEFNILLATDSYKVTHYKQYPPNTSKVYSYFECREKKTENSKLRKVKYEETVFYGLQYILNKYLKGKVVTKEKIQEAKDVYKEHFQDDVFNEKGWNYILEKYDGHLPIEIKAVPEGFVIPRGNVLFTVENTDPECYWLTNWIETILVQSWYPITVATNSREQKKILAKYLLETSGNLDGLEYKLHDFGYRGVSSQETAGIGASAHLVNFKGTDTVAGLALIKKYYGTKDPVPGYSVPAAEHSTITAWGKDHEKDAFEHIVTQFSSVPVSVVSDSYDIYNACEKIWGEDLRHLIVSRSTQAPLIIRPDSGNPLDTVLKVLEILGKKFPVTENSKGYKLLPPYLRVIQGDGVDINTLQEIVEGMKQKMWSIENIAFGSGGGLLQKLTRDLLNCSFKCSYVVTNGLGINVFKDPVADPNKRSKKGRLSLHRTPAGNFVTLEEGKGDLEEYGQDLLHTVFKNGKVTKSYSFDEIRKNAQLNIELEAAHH
T3 sequence (Q12809 whole entry): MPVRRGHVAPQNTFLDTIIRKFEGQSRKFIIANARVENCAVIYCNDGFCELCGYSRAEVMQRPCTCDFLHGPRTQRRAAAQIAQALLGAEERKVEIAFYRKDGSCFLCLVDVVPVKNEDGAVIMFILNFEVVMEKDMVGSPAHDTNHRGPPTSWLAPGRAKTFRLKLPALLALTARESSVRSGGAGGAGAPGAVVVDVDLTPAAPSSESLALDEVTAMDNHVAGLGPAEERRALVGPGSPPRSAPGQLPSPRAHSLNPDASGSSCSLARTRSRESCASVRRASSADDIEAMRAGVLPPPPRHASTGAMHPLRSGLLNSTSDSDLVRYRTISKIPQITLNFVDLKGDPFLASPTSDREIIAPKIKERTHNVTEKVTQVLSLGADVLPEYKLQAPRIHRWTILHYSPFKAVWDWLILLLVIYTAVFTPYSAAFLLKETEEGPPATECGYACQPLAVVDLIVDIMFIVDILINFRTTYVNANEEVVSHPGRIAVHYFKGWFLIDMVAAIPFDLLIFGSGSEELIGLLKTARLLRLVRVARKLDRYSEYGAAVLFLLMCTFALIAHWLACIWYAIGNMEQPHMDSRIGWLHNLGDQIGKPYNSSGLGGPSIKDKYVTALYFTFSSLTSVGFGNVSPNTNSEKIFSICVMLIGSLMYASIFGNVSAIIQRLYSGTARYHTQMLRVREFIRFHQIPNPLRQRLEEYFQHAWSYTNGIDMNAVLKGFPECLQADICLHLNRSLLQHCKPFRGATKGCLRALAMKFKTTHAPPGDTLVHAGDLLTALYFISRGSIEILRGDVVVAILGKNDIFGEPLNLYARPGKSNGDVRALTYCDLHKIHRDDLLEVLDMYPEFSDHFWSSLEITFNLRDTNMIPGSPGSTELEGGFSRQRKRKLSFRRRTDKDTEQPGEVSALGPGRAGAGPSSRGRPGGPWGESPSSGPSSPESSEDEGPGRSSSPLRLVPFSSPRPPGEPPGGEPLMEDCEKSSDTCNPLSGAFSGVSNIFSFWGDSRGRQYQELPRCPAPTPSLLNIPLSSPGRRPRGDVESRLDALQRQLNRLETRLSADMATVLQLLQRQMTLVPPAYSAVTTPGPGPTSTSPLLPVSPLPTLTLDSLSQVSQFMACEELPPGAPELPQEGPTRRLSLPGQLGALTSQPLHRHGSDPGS

The compound `O=C(NCc1ccncc1)Nc1ccc2cn(-c3ccccc3)nc2c1` showed a logD in series [1] of 3.2. Also, the inhibition at 10 min, 10 µM turned out to be 88% at CYP1A2, 75% at CYP3A4, 74% against CYP2C9 and 50% against CYP2D6. Besides, the fraction remaining at 0.5 h, 1 µM in [2] was found to be 87%; in [5], 83%. Further, the values for the Papp in [3] and in series [4] were 4.6 ×10⁻⁶ cm/s and above 5 ×10⁻⁶ cm/s, respectively.

Regarding `Cc1ccc(C(=O)N2CCc3cc(NC(=O)NCc4cccnc4)ccc32)cc1`, the IC50 in series [6] amounted to 32 nM.

For `O=C(NCc1ccncc1)Nc1ccc2cc(-c3ccccc3)nn2c1`, the inhibition at 10 min, 10 µM on CYP1A2 was 81%; against CYP3A4, 53%; on CYP2C9, 78%; at CYP2D6 it was 70%.

Consider `O=C(NCc1cnco1)Nc1ccc2nc(-c3ccccc3)nn2c1`, for which the inhibition at 10 min, 10 µM on CYP1A2 was found to be 69%; at CYP3A4 it was 0%; on CYP2C9 it was 59%; at CYP2D6 it was 13%.

Consider `O=C(NCc1ccncc1)Nc1ccc2nc(-c3ccccc3OC(F)(F)F)nn2c1`, for which the inhibition at 10 min, 10 µM against CYP1A2 is 43%; against CYP3A4, 65%; at CYP2C9, 78%; against CYP2D6 it was 50%.

In turn, `O=C(NCc1ccncc1)Nc1ccc2nc(-c3ccc(OC(F)(F)F)cc3)nn2c1` had a logD in series [1] of 4.4. Moreover, the inhibition at 10 min, 10 µM on CYP1A2 was determined as 8%; against CYP3A4, 0%; at CYP2C9, 81%; against CYP2D6 it was 24%. In addition, the EC50 in [7] was above 100000 nM.

For the compound `O=C(NCc1ccncc1)Nc1ccc2nc(-c3ccccc3)nn2c1`, the solubility in series [8] was above 680 µg/mL; in series [11] it was 92 µg/mL (≈ 267 µM). In series [1], the logD is 3. At hERG (KCNH2) [9], this compound gave an inhibition at 3 µM of 20%. In addition, the AUC(0-t) at 24 h in the series “in vivo [10]” was determined as 25 µM·h. Further, the inhibition at 10 min, 10 µM is 63% against CYP1A2, 37% against CYP3A4, 79% against CYP2C9 and 21% on CYP2D6. For the same compound, the values for the share remaining at 0.5 h, 1 µM in series [2] and in series [5] were 95% and 86%, respectively. For the same compound, the EC50 in series [7] turned out to be 83 nM. Also, the Papp amounted to 1.42 ×10⁻⁶ cm/s in series [3] and 2.76 ×10⁻⁶ cm/s in series [4]. This compound yielded an inhibition at 10 µM against hERG (KCNH2) [12] of 51%. On hERG (KCNH2) [13], this compound had an inhibition at 30 µM of 69%. In the series “in vivo [14]”, this compound registered a Cmax of 9.2 µM. The half-life in series [15] was 54 min.

As for `CC(C)n1nccc1-c1nc2ccc(NC(=O)NCc3ccncc3)cn2n1`, the inhibition at 10 min, 10 µM turned out to be 12% on CYP1A2, 4% at CYP3A4, 79% against CYP2C9 and 17% at CYP2D6.

In the case of `Cc1ccc(C(=O)N2CCc3cc(NC(=O)NCc4ccncc4)ccc32)cc1`, the EC50 in [7] stood at 480 nM.

Compound `Cn1nccc1-c1nc2ccc(NC(=O)NCc3ccncc3)cn2n1` came in with an inhibition at 3 µM against hERG (KCNH2) [9] of 11%. The inhibition at 10 min, 10 µM was 15% on CYP1A2, 25% at CYP3A4, 42% against CYP2C9 and 16% at CYP2D6. Testing at 10 µM on hERG (KCNH2) [12] gave an inhibition of 14%. Also, the inhibition at 30 µM on hERG (KCNH2) [13] was found to be 25%.

In [1], `Cn1cccc1-c1nc2ccc(NC(=O)NCc3ccncc3)cn2n1` had a logD of 2.6. Besides, the inhibition at 10 min, 10 µM worked out at 51% at CYP1A2, 40% against CYP3A4, 75% against CYP2C9 and 27% against CYP2D6. Besides, the EC50 in series [7] stood at 120 nM.

For `O=C(NCc1ccncc1)Nc1ccc2nc(-c3cccc(OC(F)(F)F)c3)nn2c1`, the inhibition at 10 min, 10 µM amounted to 28% at CYP1A2, 0% on CYP3A4, 90% at CYP2C9 and 36% on CYP2D6.

Consider `COCCn1nccc1-c1nc2ccc(NC(=O)NCc3ccncc3)cn2n1`, for which the inhibition at 10 min, 10 µM at CYP1A2 was found to be 6%; at CYP3A4 it was 18%; on CYP2C9, 44%; on CYP2D6, 13%.

On to `O=C(NCc1cn[nH]c1)Nc1ccc2nc(-c3ccccc3)nn2c1`, for which the inhibition at 10 min, 10 µM at CYP1A2 was 86%; against CYP3A4, 0%; against CYP2C9, 59%; on CYP2D6, 23%.

In the case of `CC(C)c1nc2ccc(NC(=O)NCc3ccncc3)cn2n1`, the EC50 in series [7] is 5800 nM.
